# Entries after “also recorded” stand apart in the source; their conditions may differ.
# Key:
# S. typhimurium = experiment: Growth curve by turbidity at 660 nm; type: cell-based, Salmonella typhimurium
# Protocol: (§1) (iii) L-serine or D-serine as the amino acid was dissolved in sterilized purified water and added with bacteria solutions (B. subtilis and S. typhimurium) of the same amount and then introduced in test tubes. 1 ml of each solution was inoculated on a 9 ml DM medium (partially modified) so that final serine concentration would be 0.5% (w/v). Turbidity of the medium added with the bacteria solution and serine was measured on 660 nm at 37° C. for 10 hours immediately after the inoculation and then growth curves of B. subtilis and S. typhimurium were formed.
# (§2) As a control, turbidity was measured on a medium merely added with sterilized purified water instead of serine.
# (§3) (ii) Turbidity was measured on 660 nm for 8 hours immediately after the inoculation and growth curves of S. typhimurium and B. subtilis were formed in substantially the same manner as the above-described (1)-(iii), except that only L-serine or D-serine of 0.5% (w/v), or L-serine or D serine of 0.5% (w/v) in combination with protamine of 0.03% (w/v), each at the final concentration, were added and solutions of S. typhimurium and B. subtilis were used.
# (§4) With compounds shown in FIGS. 14, 16 and 18, growth curves of S. typhimurium, B. subtilis and E. coli were formed in substantially the same manner as the above-described (1)-(111), respectively. The results are shown in FIGS. 14, 16 and 18, respectively. For comparison, the compounds were solely used without L-serine and the growth curves of S. typhimurium, B. subtilis and E. coli were formed. The results are shown in FIGS. 15, 17 and 19, respectively.
# B. subtilis = experiment: Growth curve by turbidity at 660 nm; type: cell-based, Bacillus subtilis; conditions: for proliferation of B. subtilis compared with the control: serine 0.5% (w/v), 37° C., 10 hours, turbidity 660 nm, FIG. 3
# Protocol: as §1, §2, §3
# Growth curves of B. subtilis were formed in the same manner as the above-described (4) except that protamine of 0.03% (w/v) was replaced with lysozyme of 0.1% (w/v).
# as §4
# E. coli [1] = experiment: Growth curve by turbidity at 660 nm; type: cell-based, Escherichia coli; conditions: L-serine 1.5% (w/v) solely, 8 hours; FIG. 7
# Protocol: as §1, §2
# (i) Turbidity of the medium was measured on 660 nm for 8 hours immediately after the inoculation and the growth curve of E. coli was formed in the same manner as the above-described (1)-(iii) except that L-serine of 1.5% (w/v), or L-serine or D-serine of 1.5% (w/v) and protamine of 0.1% (w/v), each at the final concentration, were added and an E. coli solution was used.
# With compounds shown in FIGS. 14, 16 and 18, growth curves of S. typhimurium, B. subtilis and E. coli were formed in substantially the same manner as the above-described (1)-(111), respectively. The results are shown in FIGS. 14, 16 and 18, respectively. […]
# B. subtilis MF920 = experiment: Survival rate (viable cell count) after addition of amino acids and heat treatment; type: cell-based, Bacillus subtilis; conditions: heated at 80° C. for 10 minutes; for viable cell count compared with sterilized purified water alone: amino acid 1% (w/v), FIG. 5
# Protocol: In the same manner as the above-mentioned (1)-(i), additives of glycine, L-alanine, L-serine, L-lysine monohydrochloride, L-threonine and L-arginine monohydrochloride were dissolved in sterilized purified water, respectively to prepare amino acid solutions of 10% (w/v). Then a bacteria solution (B. subtilis MF920) was added to 1 ml of each of the amino acid solutions so that amino acid concentration in each tube would be 1% (w/v).
# The test tubes were heated at 80° C. for 10 minutes and then quenched. Then, 10 fold dilutions of the obtained bacteria solutions were prepared.
# 0.1 ml of each dilution was inoculated on three dishes and incubated 2 days to count expressed colonies. The survival rate was measured in the same manner as described above.
# Change in the bacteria survival rate was examined in the same manner as the above-mentioned (2) except that the concentration of L-serine was varied within 0.01 to 1% (w/v).
# [2] = Amino acid analysis of L-serine after a heat treatment; type: physicochemical; conditions: for L-serine concentration: nominal 2 nmol/10 μl
# Protocol: L-serine was added in 1% (w/v) to the bacteria solution and to the medium used in the above. The obtained bacteria culture solution and medium were divided in two test tubes, respectively. One of them was allowed to stand at room temperature for 10 minutes and the other was heated at 80° C. for 10 minutes. Both were quenched and diluted so that the L-serine concentration would be 2 nmol/10 μl and amino acid analysis was carried out with an amino acid automatic analyzer.
# E. coli [3] = experiment: E. coli survival rate after heat treatment in the presence of casein; type: cell-based, Escherichia coli; conditions: L-serine 1% (w/v), casein 1 to 4% (w/v), heated at 40° C. for 10 minutes; FIG. 11
# Protocol: L-serine of 0% or 1% (w/v), casein of 1 to 4% (w/v) and a 802 growth medium were added in test tubes. The test tubes were heated at 40° C. for 10 minutes and quenched. 10-fold dilutions of the resulting solutions were prepared. 0.1 ml of each of the dilutions was inoculated on three dishes, incubated for one day and expressed colonies were counted to examine change in the E. coli survival rate.
# E. coli [4] = experiment: Survival rate of E. coli after addition of L- or D-serine, with or without heat treatment; type: cell-based, Escherichia coli; conditions: serine 0.5% (w/v), FIG. 2
# Protocol: (i) Glycine, L-alanine, L-serine, L-lysine monohydrochloride, L threonine or L-arginine monohydrochloride was put in test tubes as an additive, respectively, and dissolved in sterilized purified water to prepare amino acid solutions of 10% (w/v). To 1 ml of each of the amino acid solutions 9 ml of the bacteria solution was added so that the concentration of each amino acid would be 1% (w/v).
# The test tubes containing these amino acids and the bacteria solution were allowed to stand at room temperature for 10 minutes and 10^4 fold dilutions were obtained from the resulting solutions.
# 0.1 ml of each dilution was inoculated on three dishes and incubated for 2 days to count the number of expressed colonies as the viable cell count.
# In the same manner as described above, a 10^4 fold dilution prepared without adding amino acid was used as a blank and incubated to count expressed colonies as the viable cell count.
# As a survival rate, the viable cell count of bacteria added with amino acid with respect to the viable cell count measured in the blank was measured.
# (ii) The survival rate of E. coli was measured in the same manner as described above except that L-serine and D-serine of 0.5% (w/v) as the amino acids and an E. coli solution as the bacteria solution were used.
# Escherichia coli = conditions: in the presence of ethanol; cited from earlier work
# [5] = serine 0.5% (w/v) only, 8 hours, FIG. 8
# [6] = serine 0.5% (w/v), 37° C., 10 hours, turbidity 660 nm, FIG. 4
compound,measurement,setting,value
N[C@@H](CO)C(=O)O [L-serine],proliferation of S. typhimurium relative to the control,S. typhimurium; [5],about 80%
same,proliferation of S. typhimurium relative to the control,S. typhimurium; [6],about 80%
same,proliferation of B. subtilis compared with the control,B. subtilis,about 10%
same,proliferation of E. coli relative to the control,E. coli [1],about 40%
same,survival rate as a function of L-serine concentration,"B. subtilis MF920; L-serine 0.01 to 1% (w/v), FIG. 6","the higher the L-serine concentration was, the more the survival rate decreased"
same,viable cell count compared with sterilized purified water alone,B. subtilis MF920,remarkably reduced; also recorded: greatest reduction
same,decomposition by heating,"[2]; 80° C. for 10 minutes, regardless of the presence of bacteria",would not be decomposed
same,L-serine concentration,"[2]; bacteria solution heated (80° C., 10 minutes)",2.3 nmol/10 μl
same,L-serine concentration,[2]; bacteria solution unheated (room temperature 10 minutes),2.3 nmol/10 μl
same,L-serine concentration,"[2]; medium heated (80° C., 10 minutes)",2.3 nmol/10 μl
same,L-serine concentration,[2]; medium unheated (room temperature 10 minutes),2.2 nmol/10 μl
same,E. coli proliferation in the presence of casein,E. coli [3],effective inhibition
same,bacteria proliferation after heat treatment,E. coli [4]; heat treatment at 80° C. for 10 minutes,further inhibited
same,bacteria proliferation relative to the blank,E. coli [4]; no heat treatment,about 30%
NCC(=O)O [glycine],bacteriostasis to Escherichia coli,Escherichia coli,shows bacteriostasis
same,viable cell count compared with sterilized purified water alone,B. subtilis MF920,slightly reduced
"Cl.NCCCC[C@H](N)C(=O)O [L-lysine, L-lysine monohydrochloride]",viable cell count compared with sterilized purified water alone,B. subtilis MF920,increase
"Cl.N=C(N)NCCC[C@H](N)C(=O)O [L-arginine, L-arginine monohydrochloride]",viable cell count compared with sterilized purified water alone,B. subtilis MF920,increase
C[C@H](N)C(=O)O [L-alanine],viable cell count compared with sterilized purified water alone,B. subtilis MF920,slightly reduced
N[C@H](CO)C(=O)O [D-serine],proliferation of S. typhimurium relative to the control,S. typhimurium; [5],about 80%
same,proliferation of S. typhimurium relative to the control,S. typhimurium; [6],about 80%
same,proliferation of B. subtilis relative to the control,"B. subtilis; serine 0.5% (w/v) only, 8 hours, FIGS. 9 and 10",about 50%
same,proliferation of B. subtilis compared with the control,B. subtilis,80%
C[C@@H](O)[C@H](N)C(=O)O [L-threonine],viable cell count compared with sterilized purified water alone,B. subtilis MF920,increase
